Measurements published in patent US20170234881A1, “METHODS OF DIAGNOSING AND TREATING CANCER” (INSERM ( INSTITUT NATIONAL DE LA SANTÉ ET DE LA RECHERCHE …, priority 2014, published 2017).

System: ShC tumors
Assay: Ki67 staining of shC MCF7 tumors xenografted in mice
Format: in vivo
Conditions: OCDO treatment
Description: FIG. 7. Knock-down of 11βHSD2 decreases cell proliferation, invasion and survival in MCF7 cells as well as tumor growth and OCDO reverses these effects. shC or shHSD2 MCF7 cells were analyzed as followed: (A) The proliferation of sh-C or shHSD2 cells treated or not with OCDO 5 μM 24 h was measured using quantification of DNA BrDU incorporation as described in FIG. 2A. (B) The proliferation of sh-C or shHSD2 cells treated or not with increasing concentration of cortisone for 24 h was measured as in (A). (C) The invasiveness of sh-C or shHSD2 cells treated or not with OCDO 5 μM for 72 h was assayed using matrigel-coated filters. (D) the formation of colony by sh-C or shHSD2 cells treated or not with OCDO 1 μM was quantified as described in FIG. 6F. […] Animals were monitored for tumor growth twice a week. […] (F) Mean (±s.e.m) of Ki67 positive cell number determined from IHC staining of shC or shHSD2 MCF7 tumor sections from (E), n=8, *P<0.05 (Student's t-test) using HistoQuant, Pannoramic Viewer (3DHistech).
Exponentially growing MCF7, ShMCF7, E0771, MDA-MB231, MDA-MB468 and TS/A cells were collected, washed twice in PBS and resuspended in PBS. […] Animals were examined daily, and body weights were measured twice per week. In all the experiments, the tumor volume was determined by direct measurement with a caliper and was calculated using the formula (width^2×length)/2. […]

CC(C)CCC[C@@H](C)[C@H]1CC[C@H]2[C@@H]3CC(=O)[C@@]4(O)C[C@@H](O)CC[C@]4(C)[C@H]3CC[C@]12C [OCDO, 6-oxo-cholestan-3β,5α-diol]
cell proliferation by KI67 staining of tumors: increased
